Laboratory results as given in US7749530B2, “Kinase inhibitors” (Allergan, Inc., priority 2005, dated 2010).

Experiment: in vitro release study of TKI from ocular implants (polymer composites)
Assay type: physicochemical
Details: for burst release at day 1 / period of release at the stated rate: formulation of 50% polymer (RG755 or RG504) and 50% TKI; for time over which the ocular composite continues to release the TKI / release of the TKI from the ocular implant (percent of TKI): phosphate buffered saline release medium pH 7.4, 37° C.; for release of the TKI from the ocular implant (percent of TKI): within 30 days
Method: The in vitro release study was carried out in an incubator at 37° C. shaking at 120 rpm.
The release medium was 0.02% Polysorbate 80 containing 10 mM phosphate buffered saline, pH7.4. The medium and implants were placed in 20 mL scintillation vials. At given time points, the medium containing released drug was collected and replaced with fresh medium. The concentration of the compound in the release medium was analyzed using HPLC.

| burst release at day 1 | period of release at the stated rate | time over which the ocular composite continues to release the TKI | release of the TKI from the ocular implant (percent of TKI) | SMILES |
| --- | --- | --- | --- | --- |
| minimal burst release | approximately 50 days | > 6 months | 2-12% | Cc1cc(C(=O)Nc2cccc(C(=O)c3ccc4c(c3)NC(=O)C4=CNc3ccc(CN4CCCC4)cc3)c2)n(C)n1 [Example 206, 2,5-Dimethyl-2H-pyrazole-3-carboxylic acid (3-{2-oxo-3-[(4-pyrrolidin-1-ylmethyl-phenylamino)-methylene]-2,3-dihydro-1H-indole-6-carbonyl}-phenyl)-amide] |
|  |  | > 6 months | 2-8% | Cc1cc(C(=O)Nc2cccc(C(=O)c3ccc4c(c3)NC(=O)C4=CNc3ccc(CCCC(=O)O)cc3)c2)n(C)n1 [Example 324, 4-{4-[(6-{3-[(2,5-Dimethyl-2H-pyrazole-3-carbonyl)-amino]-benzoyl}-2-oxo-1,2-dihydro-indol-3-ylidenemethyl)-amino]-phenyl}-butyric acid] |
| minimal burst release | approximately 50 days | > 6 months | 29-35% | Cc1ccoc1C(=O)Nc1cccc(C(=O)c2ccc3c(c2)NC(=O)C3=CNc2ccc(CCC(=O)[O-])cc2)c1.[Na+] [Example 378, 3-{4-[(6-{3-[(3-Methyl-furan-2-carbonyl)-amino]-benzoyl}-2-oxo-1,2-dihydro-indol-3-ylidenemethyl)-amino]-phenyl}-propionic acid, sodium salt] |
